According to patent US7291451B2, “Modulation of pericyte proliferation” (XOMA Technology Ltd., priority 2000, dated 2007):
Entries after “also recorded” stand apart in the source; their conditions may differ.

How the values were obtained:
[1] = system: bovine retinal pericytes (BRPC); experiment: Cell growth assay (DNA content, cell number) in bovine retinal pericytes; format: cell-based; settings: for stimulation of proliferation: 5, 10 or 15% FBS
Experimental: A cell growth assay was performed as follows: Cells were plated onto 12-well culture plates and incubated overnight. The cells were treated with vehicle, vascular endothelial growth factor (VEGF, R & D Systems, Minneapolis, Minn.) at 25 ng/ml, serum, compounds, or combinations thereof. The medium is changed during the incubation period, with fresh medium and fresh test compound added every 2 days. After incubation for indicated time period at 37° C., the cells were lysed in 0.1% SDS and DNA content was measured by means of Hoechst-33258 dye and a fluorometer (model TKO-100, Hoefer Scientific Instruments, San Francisco, Calif.). It has been shown that total cellular DNA content measured in this manner correlates closely with actual cell number as determined by hemocytometer counting of trypsinized cells.
Determinations were performed in triplicate and all experiments were repeated at least three times. Results are expressed as the mean ±standard deviation, unless otherwise indicated. Statistical analysis employed Student's t-test or analysis of variance to compare quantitative data populations with normal distributions and equal variance. Data were analyzed using the Mann-Whitney rank sum test or the Kruskal-Wallis test for populations with non-normal distributions or unequal variance. A P-value of <0.05 was considered statistically significant.
Primary cultures of bovine retinal pericytes (BRPC) were isolated by homogenization and a series of filtration steps as described in King et al., J. Clin. Invest., 1985, 75:1028-36. BRPC were cultured in Dulbecco's modified Eagle's medium (DMEM, Gibco BRL, Grand Island, N.Y.) with 5.5 mM glucose and 20% fetal bovine serum (FBS, Gibco BRL, Grand Island, N.Y.). Cells were characterized for homogeneity by their immunoreactivity with monoclonal antibody 3G5 [Nayak et al., J. Exp. Med. 1988, 167:1003-15]. Cells remained morphologically unchanged under these conditions, as confirmed by light microscopy. Only cells from passages 2 through 7 were used for the experiments.
A cell growth assay was performed as described above in Example 1 and the medium was changed, with fresh medium and fresh test compound added every 2 or 3 days, preferably every 2 days. […] At 20% FBS a six to seven fold increase of total DNA was detected.

[2] = system: human retinal pericytes (HRPC); experiment: Human retinal pericyte proliferation assay (Methylene blue, OD650); format: cell-based; settings: 5% FBS
Experimental: In addition to studies with primary cell cultures of bovine retinal pericytes described above, experiments were performed with a human cell line obtained from Clonetics (San Diego, Calif.) of retinal pericytes (catalog no. CC-2542 PyCRt). These human retinal pericytes (HRPC) were cultured in Dulbecco's modified Eagle's medium (DMEM, Gibco BRL, Grand Island, N.Y.) with 5.6 mM glucose and 20% fetal bovine serum (FBS, Gibco BRL, Grand Island, N.Y.).
Proliferation assays were performed as follows: HRPC were plated onto 24-well culture plates (3000 cells/well) in 5 or 10% FBS-DMEM with 5.6 mM glucose and incubated overnight. The cells were treated once with vehicle alone or with vehicle and several concentrations of XMP.627 ([SEQ ID NO: 4]), XMP.664 ([SEQ ID NO: 5]), XMP.679 ([SEQ ID NO: 3]), or XMP.728 ([SEQ ID NO: 6]) for 5 or 6 days. The medium was not changed, nor were additional amounts of test compounds added as described in the experiments of part A above. The cells were fixed and stained with Methylene blue and proliferation assayed by observation at OD650.

[3] = system: ischemia-induced retinal neovascularization; experiment: Ischemia-induced retinal neovascularization in neonatal mice; format: in vivo
Source text: To produce ischemia-induced retinal neovascularization, litters of 7-day-old (postnatal day 7, P7) C57BL/6J mice and their nursing mothers were exposed to 75±2% oxygen for 5 days and then returned to ambient air at age P12 as described in Smith et al., Invest. Ophthalmol. Vis. Sci., 1994, 35:101-111. […] Control animals received saline. After sacrifice and enucleation, flat-mounted, fluorescein-conjugated dextran-perfused retinas were examined to assess the retinal vasculature. This mouse model reflects the effects of hypoxia on inducing angiogenesis in the retina. After birth, the mice are exposed to a high level oxygen for 4-5 days. The effect of high levels of oxygen will decrease or prevent the growth of blood vessels in the retina. Once the mice have been removed from the hyperoxic condition to normal oxygen levels, the retina will develop hypoxia due to the lack of blood vessels. The hypoxia in the retina will induce many growth factors (including VEGF) which leads to a angiogenic response that can be quantitated by measuring the number of nuclei in the blood vessels above the internal limiting membrane. This mouse model of angiogenesis is thought to be a good animal reflection of retinopathy of prematurity. The main growth factor responsible for retinal angiogenesis in this mouse model is thought to be due to the expression of VEGF. […] These neovascular rufts were most prominent on P17-19, but after P23 the neovascularization regressed, and the vascular pattern normalized by P26. As described in Aiello et al., Proc. Nat'l Acad. Sci. USA, 1995, 92:10457-61, mice at P17 (n=5) were deeply anesthetized with pentobarbitol sodium (100 mg/kg) and sacrificed by cardiac perfusion with 4% paraformaldehyde in phosphate-buffered saline. Eyes were enucleated and fixed in 4% paraformaldehyde at 4° C. overnight, and enbedded in paraffin. Over 50 serial sections (6 μm) including optic nerve head were placed on microscope slides. After staining with periodic acid/Schiff reagent and hematoxylin, 10 intact sections of equal length, each 30 μm apart, were evaluated for a span of 300 μm. All retinal vascular cell nuclei anterior to the internal limiting membrane were counted in each section by a fully masked protocol. The mean of all 10 counted sections yielded average neovascular cell nuclei per 6 μm section per eye. No vascular cell nuclei anterior to the internal limiting membrane are observed in normal unmanipulated animals.

Substance: XMP.679: BPI-derived peptide derived from BPI domain II, SEQ ID NO: 3 (KLFKAQAKAKG; XMP.679; listed as Homo sapiens)
- stimulation of proliferation ([1]; 5 μg/mL): ~2 fold
- growth increase as potency of 20% FBS ([1]; 5 μg/ml, 5% FBS): 30 to 40%
- growth compared with 20% FBS ([1]; 5 μg/ml, 10% FBS): equaled the effect of 20% FBS
- retinal pericyte proliferation ([1]; 5 μg/ml, 10% FBS): greatest increase
- growth compared with 15 or 20% FBS (trend) ([1]; 5 μg/ml, 15% FBS): may have more growth effect than either 15 or 20% FBS
- stimulation of proliferation ([1]; 15 μg/mL): no enhancement
- effect on growth ([1]; 15 μg/ml (higher concentration), 5% FBS, 3 or 6 days): did not increase growth; also recorded: did not show-a growth stimulating effect
- effect on growth ([1]; 15 μg/ml, 10% FBS): did not have much growth effect
- retinal pericyte proliferation ([1]; 20 μg/ml, 10% FBS): did not
- pericyte DNA content ([1]; 1, 5, 10, and 15 μg/ml, 10% FBS): Statistically significant increases
- effect on growth ([1]; 1 or 5 μg/ml, 5% FBS, 6 days): increased growth
- effect on growth ([1]; 15% FBS, concentration not given): did not increase the growth of pericyte in 15% FBS to any significant amount
- effect on HRPC growth ([2]; 10 μg/ml and higher): slight growth inhibitory effect
- concentration of maximum HRPC proliferation [2]: approximately 5 μg/ml
- effect on HRPC proliferation ([2]; approximately 0.5, 1, 5, 8 μg/ml): increased HRPC proliferation in a dose responsive manner
- decrease of number of nuclei anterior to the internal limiting membrane ([3]; 10 mg/kg daily intraperitoneal, p<0.001): 30 to 40%
- retinal vasculature compared with control mice ([3]; 10 mg/kg intraperitoneal every 24 hrs P12 to P17): fewer blood vessels with much less density and tortuosity
- decrease of number of nuclei anterior to the internal limiting membrane ([3]; 20 mg/kg daily intraperitoneal, p<0.01): approximately 71%
- inhibition of retinal neovascularization (dose response) ([3]; range of 10-20 mg/kg): inhibits retinal neovascularization in a dose responsive manner
